Data as given in the NIST ThermoML archive (doi:10.1016/j.jct.2014.10.008).
Numbers after ± are expanded uncertainties.

Test: osmotic coefficient (dimensionless); mn = molality of the nth substance listed, in mol/kg
Details: 101 kPa, Liquid, Vapor pressure osmometer - Knauer K-7000

CCCCCCCC[n+]1ccn(C)c1.[Cl-] [1-methyl-3-octylimidazolium chloride] + O
Details | osmotic coefficient
313.15 K, m1 = 0.0346 | 1.05 ± 0.013
313.15 K, m1 = 0.0491 | 1 ± 0.016
313.15 K, m1 = 0.0809 | 0.816 ± 0.015
313.15 K, m1 = 0.1329 | 0.727 ± 0.016
313.15 K, m1 = 0.182 | 0.681 ± 0.017
313.15 K, m1 = 0.2455 | 0.617 ± 0.018
313.15 K, m1 = 0.2917 | 0.555 ± 0.02
313.15 K, m1 = 0.3582 | 0.531 ± 0.02
313.15 K, m1 = 0.4679 | 0.48 ± 0.022
313.15 K, m1 = 0.5228 | 0.45 ± 0.023
313.15 K, m1 = 0.6037 | 0.424 ± 0.024
313.15 K, m1 = 0.7323 | 0.383 ± 0.025
313.15 K, m1 = 0.8825 | 0.343 ± 0.026
313.15 K, m1 = 1.072 | 0.317 ± 0.027
313.15 K, m1 = 1.356 | 0.289 ± 0.028
313.15 K, m1 = 1.771 | 0.266 ± 0.029
323.15 K, m1 = 0.0419 | 1.1 ± 0.014
323.15 K, m1 = 0.052 | 1.06 ± 0.014
323.15 K, m1 = 0.0858 | 0.946 ± 0.013
323.15 K, m1 = 0.1118 | 0.918 ± 0.013
323.15 K, m1 = 0.182 | 0.726 ± 0.016
323.15 K, m1 = 0.2455 | 0.675 ± 0.017
323.15 K, m1 = 0.2917 | 0.633 ± 0.018
323.15 K, m1 = 0.3582 | 0.587 ± 0.019
323.15 K, m1 = 0.4679 | 0.54 ± 0.02
323.15 K, m1 = 0.5228 | 0.498 ± 0.021
323.15 K, m1 = 0.6037 | 0.464 ± 0.022
323.15 K, m1 = 0.7323 | 0.424 ± 0.024
323.15 K, m1 = 0.8825 | 0.384 ± 0.025
323.15 K, m1 = 1.072 | 0.345 ± 0.026
323.15 K, m1 = 1.356 | 0.31 ± 0.027
323.15 K, m1 = 1.771 | 0.3 ± 0.028
328.15 K, m1 = 0.0361 | 1.14 ± 0.013
328.15 K, m1 = 0.0506 | 1.12 ± 0.013
328.15 K, m1 = 0.0852 | 1.08 ± 0.012
328.15 K, m1 = 0.1329 | 1.07 ± 0.012
328.15 K, m1 = 0.1791 | 1.02 ± 0.012
328.15 K, m1 = 0.2484 | 0.962 ± 0.012
328.15 K, m1 = 0.2947 | 0.957 ± 0.012
328.15 K, m1 = 0.3568 | 0.929 ± 0.012
328.15 K, m1 = 0.468 | 0.906 ± 0.012
328.15 K, m1 = 0.5243 | 0.875 ± 0.013
328.15 K, m1 = 0.6052 | 0.844 ± 0.013
328.15 K, m1 = 0.7352 | 0.753 ± 0.015
328.15 K, m1 = 0.8826 | 0.689 ± 0.016
328.15 K, m1 = 1.072 | 0.624 ± 0.018
328.15 K, m1 = 1.359 | 0.556 ± 0.02
328.15 K, m1 = 1.774 | 0.479 ± 0.022

CCCC[N+]1(C)CCCC1.N#CN=C=[N-] [1-butyl-1-methylpyrrolidinium dicyanamide] + O
Details | osmotic coefficient
313.15 K, m1 = 0.0272 | 0.915 ± 0.014
313.15 K, m1 = 0.0491 | 0.849 ± 0.015
313.15 K, m1 = 0.0864 | 0.734 ± 0.016
313.15 K, m1 = 0.1088 | 0.697 ± 0.016
313.15 K, m1 = 0.1499 | 0.68 ± 0.017
313.15 K, m1 = 0.1968 | 0.627 ± 0.018
313.15 K, m1 = 0.3968 | 0.503 ± 0.021
313.15 K, m1 = 0.5057 | 0.471 ± 0.022
313.15 K, m1 = 0.7825 | 0.433 ± 0.023
313.15 K, m1 = 0.9665 | 0.416 ± 0.024
313.15 K, m1 = 1.474 | 0.373 ± 0.025
323.15 K, m1 = 0.0272 | 0.982 ± 0.015
323.15 K, m1 = 0.0512 | 0.879 ± 0.013
323.15 K, m1 = 0.0928 | 0.855 ± 0.013
323.15 K, m1 = 0.112 | 0.846 ± 0.013
323.15 K, m1 = 0.1499 | 0.81 ± 0.014
323.15 K, m1 = 0.1968 | 0.747 ± 0.015
323.15 K, m1 = 0.2912 | 0.673 ± 0.017
323.15 K, m1 = 0.3968 | 0.656 ± 0.017
323.15 K, m1 = 0.5057 | 0.608 ± 0.018
323.15 K, m1 = 0.7825 | 0.538 ± 0.02
323.15 K, m1 = 0.9665 | 0.48 ± 0.022
323.15 K, m1 = 1.488 | 0.405 ± 0.024
328.15 K, m1 = 0.024 | 1.05 ± 0.013
328.15 K, m1 = 0.0896 | 0.859 ± 0.014
328.15 K, m1 = 0.1248 | 0.815 ± 0.014
328.15 K, m1 = 0.2032 | 0.747 ± 0.015
328.15 K, m1 = 0.2913 | 0.682 ± 0.017
328.15 K, m1 = 0.4017 | 0.642 ± 0.018
328.15 K, m1 = 0.5041 | 0.585 ± 0.019
328.15 K, m1 = 0.7825 | 0.559 ± 0.02
328.15 K, m1 = 0.973 | 0.498 ± 0.021
328.15 K, m1 = 1.496 | 0.424 ± 0.024
